Test results reported in publication PMC10202811 (Nature Medicine, 2023).
Where “and” joins values, the source holds several entries; their conditions need not be identical. Equal values may be shown once.

Experiment: Plasma pharmacokinetics of lorlatinib at steady state (LC-MS/MS, non-compartmental analysis)
Type: in vivo, human
Parameters: Vz_F / Cmax_D / AUMClast / AUMC_TAU: unit not given here
Settings: for Tlag: unit assumed
Description: Lorlatinib was isolated from human plasma by a liquid-iquid extraction procedure. […] A linear-log trapezoidal method was used [NT] A best-fit method was used to estimate terminal elimination and to extrapolate any plasma concentration versus time profiles to compute [NT].

[1] = Cohort A1, 115 mg/m2 per dose, C1D15, Min, N 6
[2] = Cohort A1, 115 mg/m2 per dose, C1D15, individual patient
[3] = Cohort A2, 100 mg per dose, C1D15, Max, N 5
[4] = Cohort A2, 100 mg per dose, C1D15, Min, N 5
[5] = Cohort A2, 100 mg per dose, C1D15, individual patient
[6] = Cohort A2, 150 mg per dose, C1D15, Min, N 10
[7] = Cohort A2, 150 mg per dose, C1D15, individual patient
[8] = Cohort B2, 95 mg/m2 per dose, C1D15, Min, N 2
[9] = Cohort B2, 95 mg/m2 per dose, C1D15, individual patient
[10] = Cohort B2, 115 mg/m2 per dose, C1D15, Max, N 6
[11] = Cohort B2, 115 mg/m2 per dose, C1D15, Min, N 6
[12] = Cohort B2, 115 mg/m2 per dose, C1D15, individual patient
[13] = Cycle 1 Day 1, Cohort A1, 95 mg/m2 per dose
[14] = Cycle 1 Day 1, Cohort A1, 115 mg/m2 per dose
[15] = Cycle 1 Day 1, Cohort A2, 150 mg per dose
[16] = Cycle 1 Day 1, Cohort A2, 150 mg per dose, in h (unit assumed)
[17] = Cycle 1 Day 1, Cohort A2, 150 mg per dose, in ng·h/mL (unit assumed)

In the case of `C[C@H]1Oc2cc(cnc2N)-c2c(nn(C)c2C#N)CN(C)C(=O)c2ccc(F)cc21` [Lorlatinib, (10R)-7-amino-12-fluoro-2,10,16-trimethyl-15-oxo-10,15,16,17-tetrahydro-2H-8,4-(metheno)pyrazolo[4,3-h][2,5,11]-benzoxadiazacyclotetradecine-3-carbonitrile], the CLss_F [1] is reported as 7.45 L/h, the Cmax [1] is reported as 708 ng/mL and the Tmax [1] is reported as 1 h. The AUC_TAU [2] was 8206.77 ng·h/mL and 6238.52 ng·h/mL and 11011.1 ng·h/mL and 5878.52 ng·h/mL and 8933.2 ng·h/mL and 14092.4 ng·h/mL, the CLss_F [2] was 15.84 L/h and 9.62 L/h and 9.99 L/h and 11.91 L/h and 16.79 L/h and 7.45 L/h and the Cmax [2] was 708 ng/mL and 1210 ng/mL and 1530 ng/mL and 859 ng/mL and 2090 ng/mL. It also gave a Tmax [2] of 2 h, a CLss_F (Cohort A2, 100 mg per dose, C1D15, Geometric Mean, N 5) of 14.731 L/h and an AUC_TAU [3] of 16686 ng·h/mL. The CLss_F [3] was 32.13 L/h, the Cmax [3] was 1830 ng/mL and the CLss_F (Cohort A2, 100 mg per dose, C1D15, Median, N 5) was 16.3 L/h. It also gave an AUC_TAU [4] of 3111.99 ng·h/mL, a CLss_F [4] of 5.99 L/h and a Cmax [4] of 341 ng/mL. For the same compound, the Tmax [4] was 1 h, the AUC_TAU [5] was 16686 ng·h/mL and 10710.2 ng·h/mL and 3111.99 ng·h/mL and 4225.59 ng·h/mL and the CLss_F [5] was 5.99 L/h and 9.34 L/h and 32.13 L/h and 16.3 L/h and 23.67 L/h. The Cmax [5] was 1830 ng/mL and 1630 ng/mL and 341 ng/mL and 528 ng/mL, the Tmax [5] was 2 h and the AUC_TAU (Cohort A2, 150 mg per dose, C1D15, Max, N 10) was 8297.22 ng·h/mL. It also gave an AUC_TAU [6] of 4999.09 ng·h/mL, a Cmax [6] of 502 ng/mL and a Tmax [6] of 1 h. For the same compound, the AUC_TAU [7] was 7380.68 ng·h/mL and 6784.89 ng·h/mL and 4999.09 ng·h/mL and 5689.56 ng·h/mL and 7693.93 ng·h/mL and 6576.81 ng·h/mL and 7115.87 ng·h/mL and 7004.8 ng·h/mL and 8297.22 ng·h/mL, the CLss_F [7] was 25.34 L/h and 20.32 L/h and 22.11 L/h and 30.01 L/h and 26.36 L/h and 19.5 L/h and 22.81 L/h and 21.08 L/h and the Cmax [7] was 647 ng/mL and 750 ng/mL and 502 ng/mL and 670 ng/mL and 912 ng/mL and 943 ng/mL and 602 ng/mL and 814 ng/mL. For the same compound, the Tmax [7] was 2 h, the AUC_TAU [8] was 5523.12 ng·h/mL and the Cmax [8] was 721 ng/mL. It also gave a Tmax [8] of 2 h, an AUC_TAU [9] of 5523.12 ng·h/mL and a Cmax [9] of 721 ng/mL. It also gave a Tmax [9] of 2 h, a CLss_F (Cohort B2, 115 mg/m2 per dose, C1D15, Geometric Mean, N 6) of 13.049 L/h and an AUC_TAU [10] of 17825.7 ng·h/mL. It also gave a CLss_F [10] of 20.8 L/h, a Cmax [10] of 2190 ng/mL and a Tmax [10] of 2 h. The CLss_F (Cohort B2, 115 mg/m2 per dose, C1D15, Median, N 6) was 12.47 L/h, the AUC_TAU [11] was 5493.74 ng·h/mL and the CLss_F [11] was 7.85 L/h. The Cmax [11] was 766 ng/mL, the Tmax [11] was 1 h and the AUC_TAU [12] was 17825.7 ng·h/mL and 6932.9 ng·h/mL and 8905.09 ng·h/mL and 5493.74 ng·h/mL and 6008.87 ng·h/mL and 6951.39 ng·h/mL. The Cmax [12] was 2190 ng/mL and 1680 ng/mL and 1330 ng/mL and 766 ng/mL, the Tmax [12] was 2 h and the Tlast [13] was 24 h. It also gave a Tmax (Cycle 1 Day 1, Cohort A1, 95 mg/m2 per dose, listed as lorlatinib, in h (unit assumed)) of 2, a Tlag [13] of 0 h and a Tlast [14] of 24 h. It also gave a Tmax (Cycle 1 Day 1, Cohort A1, 115 mg/m2 per dose, in h (unit assumed)) of 1, a Tmax (Cycle 1 Day 1, Cohort A1, 115 mg/m2 per dose, listed as lorlatinib, in h (unit assumed)) of 2 and a Tlag [14] of 0 h. For the same compound, the AUMClast [15] was 83897.37077 and 79949.21779 and 69497.95951 and 102751.9946 and 91445.2354 and 87523.98089 and 72181.31228, the Tlast [15] was 24 h and the MRTlast [16] was 8.731 and 10.12 and 8.547 and 10.11 and 9.639 and 8.636. For the same compound, the Tmax [16] was 2, the Clast (Cycle 1 Day 1, Cohort A2, 150 mg per dose, in ng/mL) was 158 and 127 and 138 and 146 and 206 and the AUCall [17] was 9157 and 6869 and 12022.44647 and 9046 and 9080. The AUClast [17] was 9157 and 6869 and 12022.44647 and 9046 and 9080 and 8359.
